Data taken from patent publication US20060063794A1, “Method of attenuating graft rejection” (Fujisawa Pharmaceutical Co., Ltd., priority 2004, published 2006).

Tested on: human kidney transplant recipients
Assay: Multi-center, randomized, double-blind trial of FK778/Tacrolimus/steroids: acute rejection and graft survival
Format: in vivo
Procedure: Patients were randomised to a 3-month treatment regimen with high-level FK778/Tacrolimus/corticosteroid (arm 1), low-level FK778/Tacrolimus/corticosteroid (arm 2), or placebo/Tacrolimus/corticosteroid (arm 3). FK778 and placebo were administered in a double-blind manner. Patients in arm 1 received two doses of 600 mg/day and continued on 150 mg/day. Patients in arm 2 received one dose of 600 mg/day and continued on 75 mg/day. Subsequent doses were adjusted to maintain trough levels of FK778 in the range of 100-200 μg/mL (arm 1) and 10-100 μg/mL (arm 2). Trough levels of FK778 were centrally determined. Doses of FK778 were adjusted according to the recommendations of an independent panel.
Treatment of adults of both genders was studied in a multi-center, randomized, double-blind trial. Three groups were studied. Group H was treated with high dose FK778/tarcolimus/steroids; Group L was treated with low dose FK778/tarcolimus/steroids; and Group P was treated with placebo/Tacrolimus/steroids. Tacrolimus was given as an initial dose of 0.2 mg/kg per os divided into two equal doses, one pre-operatively and one post-operatively. Subsequent doses were adjusted to reach target Tacrolimus whole blood trough concentrations of 10-20 ng/mL on Days 0-30, and 5-15 ng/mL on Days 31-84. Methylprednisolone was perioperatively administered at 1000 mg i.v. or less and 125 mg on Day 1. A prednisolone equivalent was given orally at 20 mg from Day 2-14, at 15 mg on Day 15-28, at 10 mg from Day 29-42 and 5 mg from Day 43-84. Oral tablets of FK778/placebo were administered in a double-blind manner.
Patients in group H received loading doses of 600 mg/day on Day 1 and 2 and continued on 150 mg/day. This was the maximum permitted daily dose of FK778. Patients in group L received 600 mg/day only on Day 1 and continued on 75 mg/day. Dose adaptations were to be performed from day 7 onwards. Subsequent doses were adjusted to maintain plasma trough levels of FK778 in the target ranges of 100-200 μg/mL (H) and 10-100 μg/mL (L).
All visits and time points were calculated from the day of reperfusion (Day 0). […] Periods of dialysis dependence and hospitalization were recorded, as were details of medication. In case of a clinically apparent rejection, a renal graft biopsy was taken and classified by the local histopathologist according to the Banff 97 criteria (Racusen et al., Kidney Int. 55: 713-723 (1999)). Type I, II and III acute rejections (AR) were reported. AR was classified as corticosteroid-sensitive or corticosteroid-resistant. An independent histopathologist who was blinded to treatment and local biopsy readings performed the central biopsy review.
The primary efficacy endpoint was the incidence of AR proven by local biopsy over the first 12 weeks. […] For being defined as a patient whose target level was achieved, the average trough level of this patient had to be within the target range at week 2. On a continuous basis safety was assessed by patient and graft survival, adverse event monitoring, routine laboratory evaluations and vital signs. Treatment emergent adverse events were coded according to the MedDRA dictionary (version 5.0).
In this example, all tests were performed one-sided and pair-wise without alpha-adjustment for multiple testing using a 10% significance level. Statistical power was calculated for the analysis of the primary endpoint. A difference of 20% between groups in the incidence of biopsy-proven AR was considered a clinically meaningful difference. A reasonable expectation for the estimated rate of patients experiencing biopsy-proven AR in the Tacrolimus/steroid arm was 35%. Allowing for a dropout rate of 11%, it was estimated that with the outlined statistical methods the sample size of 45 evaluable patients per treatment arm was large enough to achieve a power of ≧80%. Thus, it was planned to enroll 135 patients using a 1:1:1 randomisation. The primary endpoint was analysed using chi-squared tests. […]

[1] = All patients, High level FK778 (group H)
[2] = All patients, Low level FK778 (group L)

C#CCC/C(O)=C(\C#N)C(=O)Nc1ccc(C(F)(F)F)cc1 [FK778, (2Z)-2-cyano-3-hydroxy-N-[4-(trifluromethyl)phenyl]-2-hepten-6-ynamide]
Corticosteroid-resistant AR (%) [1]: (8.2) % | Corticosteroid-resistant AR, number of patients [1]: 4 | Corticosteroid-sensitive AR (%) [1]: (22.4) % | Corticosteroid-sensitive AR, number of patients [1]: 11 | Overall AR proven by central biopsy, number of patients (All patients, High level FK778 (group H), N=49): 13 | Overall AR proven by local biopsy, number of patients (All patients, High level FK778 (group H), N=49, first 12 weeks): 14 | Corticosteroid-resistant AR (%) [2]: (11.1) % | Corticosteroid-resistant AR, number of patients [2]: 6 | Corticosteroid-sensitive AR (%) [2]: (14.8) % | Corticosteroid-sensitive AR, number of patients [2]: 8 | Overall AR proven by central biopsy, number of patients (All patients, Low level FK778 (group L), N=54): 14 | Overall AR proven by local biopsy, number of patients (All patients, Low level FK778 (group L), N=54, first 12 weeks): 14 | Overall AR proven by central biopsy, number of patients (Patients reaching target levels within second week, High level FK778 (subgroup H), N=26): 2 | Overall AR proven by central biopsy, number of patients (Patients reaching target levels within second week, Low level FK778 (subgroup L), N=48): 13 | Kaplan-Meier estimated rate of patients free from centrally determined biopsy proven acute rejection, higher compared with placebo (after 12 weeks, high and low level FK778): 12.1 % percentage points | Graft survival at month 4 (arm 1, high-level FK778/Tacrolimus/corticosteroid, n=49): 89.7% | Graft survival at month 4 (arm 2, low-level FK778/Tacrolimus/corticosteroid, n=54): 88.8% | Difference in incidence of AR by central biopsy review versus placebo (group H vs. P): 12.6% | Difference in incidence of AR proven by local biopsy versus placebo (group H vs. P): 6.2% | Graft survival estimate (Kaplan-Meier method) at Week 16 (group H, high level FK778): 89.7% | Difference in incidence of AR by central biopsy review versus placebo (group L vs. P): 13.2% | Difference in incidence of AR proven by local biopsy versus placebo (group L vs. P): 8.9% | Graft survival estimate (Kaplan-Meier method) at Week 16 (group L, low level FK778): 88.8%
